Structures can show the parent of a compound that is named as a salt.
Row | Compound | melting point
1 | CC(C)(C)OC(=O)CCc1ccnc(-c2nc(=O)c3ccc(Br)cc3s2)c1 [Example 187, tert-Butyl 3-[2-(7-bromo-4-oxo-4H-1,3-benzothiazin-2-yl)-4-pyridyl]propanoate] | 172.9 to 173.7 °C
2 | CC(=O)NCCc1cccc(-c2nc(=O)c3ccccc3s2)n1 [Example 226, N-[2-[6-(4-Oxo-4H-1,3-benzothiazin-2-yl)-2-pyrizyl]ethyl]acetamide] | 206.7 to 207.9 °C
3 | NC(=O)CSc1cccc(-c2nc(=O)c3ccccc3s2)n1 [Example 282] | 256.7 to 257 °C
4 | CC(C)C(=O)NCc1cccc(-c2nc(=O)c3ccccc3s2)n1 [Example 206, 2-Methyl-N-[[6-(4-oxo-4H-1,3-benzothiazin-2-yl)-2-pyridyl]methyl]propanamide] | 188.6 to 189.2 °C
5 | O=c1nc(-c2ccccn2)sc2ccc(OCCCCCCO)cc12 [Example 119, 6-(6-Hydroxyhexyloxy)-2-(2-pyridyl)-4H-1,3-benzothiazine-4-one] | 135.6 to 137 °C
6 | C[S+]([O-])c1cc(CCC(=O)OC(C)(C)C)cc(-c2nc(=O)c3ccccc3s2)n1 (stereo not drawn) [Example 343, tert-Butyl 3-[2-(methylsulfinyl)-6-(4-oxo-4H-1,3-benzothiazin-2-yl)-4-pyridyl]propanoate] | 219.5 to 220 °C
7 | CC(C)(C)[S+]([O-])c1cccc(-c2nc(=O)c3ccccc3s2)n1 (stereo not drawn) [Example 153, 2-[6-(tert-Butylsulfinyl)-2-pyridyl]-4H-1,3-benzothiazine-4-one] | 180.5 °C (dec.)
8 | O=C(O)C[S+]([O-])c1cccc(-c2nc(=O)c3ccccc3s2)n1 (stereo not drawn) [Example 279, [6-(4-Oxo-4H-1,3-benzothiazin-2-yl)-2-pyridyl]sulfinylacetic acid] | 186.5 to 188 °C
9 | CN(C)c1cncc(-c2nc(=O)c3ccccc3s2)n1 [Example 290, 2-[6-(Dimethylamino)-2-pyrazinyl]-4H-1-benzothiazine-4-one] | 248 to 249 °C
10 | O=C(c1ccc2c(=O)nc(-c3ccccn3)sc2c1)N1CCCC1 [Example 238, 2-(2-Pyridyl)-7-(1-pyrrolidinylcarbonyl)-4H-1,3-benzothiazine-4-one] | 173.6 to 174.2 °C
11 | CC(C)(C)OC(=O)CCc1ccnc(-c2nc(=O)c3ccc(F)cc3s2)c1 [Example 184, tert-Butyl 3-[2-(7-fluoro-4-oxo-4H-1,3-benzothiazin-2-yl)-4-pyridyl]propanoate] | 137.6 to 138.1 °C
12 | Cc1cccc2c(=O)nc(-c3cccc(C(=O)NCCCCCCNC(=O)OC(C)(C)C)n3)sc12 [Example 234, tert-Butyl 6-[[[6-(8-methyl-4-oxo-4H-1,3-benzothiazin-2-yl)-2-pyridyl]carbonyl]amino]hexylcarbamate] | 170.7 to 171.5 °C
13 | COc1ccc2c(=O)nc(-c3cccc(CCC(=O)O)n3)sc2c1 [Example 174, 3-[6-(7-Methoxy-4-oxo-4H-1,3-benzothiazin-2-yl)-2-pyridyl]propionic acid] | 234.2 to 235.2 °C
14 | CCS(=O)(=O)NCc1cccc(-c2nc(=O)c3ccccc3s2)n1 [Example 212, N-[[6-(4-Oxo-4H-1,3-benzothiazin-2-yl)-2-pyridyl]methyl]ethanesulfonamide] | 170 to 171 °C
15 | O=C(O)CCc1ccnc(-c2nc(=O)c3ccc(Br)cc3s2)c1 [Example 188, 3-[2-(7-Bromo-4-oxo-4H-1,3-benzothiazin-2-yl)-4-pyridyl]propionic acid] | 257.5 to 259.1 °C
16 | CCCS(=O)(=O)Cc1cccc(-c2nc(=O)c3ccccc3s2)n1 [Example 254, 2-[6-[(n-Propylsulfonyl)methyl]-2-pyridyl]-4H-1,3-benzothiazine-4-one] | 177 to 179 °C
17 | CC(C)(C)OC(=O)CCCCCOc1ccc2sc(-c3ccccn3)nc(=O)c2c1 [Example 124, tert-Butyl 6-[[4-oxo-2-(2-pyridyl)-4H-1,3-benzothiazin-6-yl]oxy]hexanoate] | 101.2 to 102.4 °C
18 | O=c1nc(-c2cccc(CNS(=O)(=O)c3ccccc3)n2)sc2ccccc12 [Example 213, N-[[6-(4-Oxo-4H-1,3-benzothiazin-2-yl)-2-pyridyl]methyl]benzenesulfonamide] | 206.7 to 207.5 °C
19 | CC(C)(C)OC(=O)CCc1ccnc(-c2nc(=O)c3ccc(Cl)cc3s2)c1 [Example 183, tert-Butyl 3-[2-(7-chloro-4-oxo-4H-1,3-benzothiazin-2-yl)-4-pyridyl]propanoate] | 151.8 to 152.1 °C
20 | CCCCNC(=O)c1ccc2c(=O)nc(-c3ccccn3)sc2c1 [Example 237, N-Butyl-4-oxo-2-(2-pyridyl)-4H-1,3-benzothiazine-7-carboxamide] | 193.5 to 194.2 °C
21 | Cc1cc(C)c2sc(-c3ccccn3)nc(=O)c2c1 [Example 24, 6,8-Dimethyl-2-(2-pyridyl)-4H-1,3-benzothiazine-4-one] | 245 to 245.8 °C
22 | N#CCCc1ccnc(-c2nc(=O)c3ccccc3s2)c1 [Example 317, 3-[2-(4-Oxo-4H-1,3-benzothiazin-2-yl)-4-pyridyl]propionitrile] | 178.3 to 179 °C
23 | NCCc1ccnc(-c2nc(=O)c3ccccc3s2)c1 (as salt: trifluoroacetic acid salt) [Example 221, 2-[4-(2-Aminoethyl)-2-pyridyl]-4H-1,3-benzothiazine-4-one trifluoroacetic acid salt] | 209 to 210.7 °C

Row | Compound | melting point
24 | C[S+]([O-])Cc1cccc(-c2nc(=O)c3ccccc3s2)n1 (stereo not drawn) [Example 168, 2-(6-Methylsulfinylmethyl-2-pyridyl)-4H-1,3-benzothiazine-4-one] | 184.5 to 185.5 °C
25 | CC(C)(C)OC(=O)CN1CCN(c2ccnc(-c3nc(=O)c4ccccc4s3)c2)C1=O [Example 323, tert-Butyl [2-oxo-3-[2-(4-oxo-4H-1,3-benzothiazin-2-yl)-4-pyridyl]-1-imidazolidinyl]acetate] | 192.3 to 194 °C
26 | NCCCCCCNC(=O)c1cccc(-c2nc(=O)c3ccccc3s2)n1 (as salt: hydrochloride) [Example 107, N-(6-Aminohexyl)-6-(4-oxo-4H-1,3-benzothiazin-2-yl)-2-pyridinecarboxamide hydrochloride] | 95.2 to 97.6 °C
27 | N#Cc1ccnc(-c2nc(=O)c3ccccc3s2)c1 [Example 143, 2-(4-Cyano-2-pyridyl)-4H-1,3-benzothiazine-4-one] | 283.4 to 283.6 °C
28 | NCCc1cccc(-c2nc(=O)c3ccccc3s2)n1 (as salt: trifluoroacetic acid salt) [Example 220, 2-[6-(2-Aminoethyl)-2-pyridyl]-4H-1,3-benzothiazine-4-one trifluoroacetic acid salt] | 206.2 to 207.1 °C
29 | O=c1nc(-c2cccc(SCCc3ccccc3)n2)sc2ccccc12 [Example 131, 2-[6-(2-Phenethylthio)-2-pyridyl]-4H-1,3-benzothiazine-4-one] | 167.1 to 168.4 °C
30 | CCC(=O)NCc1cccc(-c2nc(=O)c3ccccc3s2)n1 [Example 205, N-[[6-(4-Oxo-4H-1,3-benzothiazin-2-yl)-2-pyridyl]methyl]propanamide] | 199 to 199.8 °C
31 | CCOP(=O)(Cc1cccc(-c2nc(=O)c3ccccc3s2)n1)OCC | 115.5 to 116.5 °C
32 | O=c1nc(-c2ccc[nH]2)sc2ccccc12 [Example 15, 2-(1H-Pyrrol-2-yl)-4H-1,3-benzothiazine-4-one] | 202.4 to 203.2 °C
33 | CCOC(=O)CSc1cccc(-c2nc(=O)c3ccccc3s2)n1 [Example 277, Ethyl {[6-(4-oxo-4H-1,3-benzothiazin-2-yl)-2-pyridyl]thio}acetate] | 124.5 to 125 °C
34 | Cc1cccc2c(=O)nc(-c3ccccn3)sc12 [Example 12, 8-Methyl-2-(2-pyridyl)-4H-1,3-benzothiazine-4-one] | 197.8 to 198.5 °C
35 | CC(C)(C)OC(=O)CCc1cccc(-c2nc(=O)c3ccc(F)cc3s2)n1 [Example 181, tert-Butyl 3-[6-(7-fluoro-4-oxo-4H-1,3-benzothiazin-2-yl)-2-pyridyl]propanoate] | 158.5 to 159.5 °C
36 | CC(C)(C)S(=O)(=O)c1cccc(-c2nc(=O)c3ccccc3s2)n1 [Example 154, 2-[6-(tert-Butylsulfonyl)-2-pyridyl]-4H-1,3-benzothiazine-4-one] | 233.6 to 234.7 °C
37 | CS(=O)(=O)c1cc(CCC(=O)O)cc(-c2nc(=O)c3ccccc3s2)n1 [Example 346, 3-[2-(Methylsulfonyl)-6-(4-oxo-4H-1,3-benzothiazin-2-yl)-4-pyridyl]propionic acid] | 305.5 to 306 °C
38 | CC(C)(C)OC(=O)NCCc1cccc(-c2nc(=O)c3ccccc3s2)n1 [Example 217, tert-Butyl 2-[6-(4-oxo-4H-1,3-benzothiazin-2-yl)-2-pyridyl]ethylcarbamate] | 170.2 to 170.8 °C
39 | CS(=O)(=O)Cc1cccc(-c2nc(=O)c3ccccc3s2)n1 [Example 169, 2-(6-Methylsulfonylmethyl-2-pyridyl)-4H-1,3-benzothiazine-4-one] | 230.5 to 231.5 °C
40 | NC(=O)CCc1cccc(-c2nc(=O)c3ccccc3s2)n1 [Example 330, 3-[6-(4-Oxo-4H-1,3-benzothiazin-2-yl)-2-pyridyl]propanamide] | 236.3 to 236.5 °C
41 | O=C(NCCc1cccc(-c2nc(=O)c3ccccc3s2)n1)Nc1ccccc1 [Example 227, N-[2-[6-(4-Oxo-4H-1,3-benzothiazin-2-yl)-2-pyridyl]ethyl]-N′-phenylurea] | 234.8 to 236.4 °C
42 | CC(C)CC[S+]([O-])c1cccc(-c2nc(=O)c3ccccc3s2)n1 (stereo not drawn) [Example 157, 2-(6-Isoamylsulfinyl-2-pyridyl)-4H-1,3-benzothiazine-4-one] | 59.5 to 61 °C
43 | CCSCc1cccc(-c2nc(=O)c3ccccc3s2)n1 [Example 249, 2-[6-[(Ethylthio)methyl]-2-pyridyl]-4H-1,3-benzothiazine-4-one] | 142 to 143.5 °C
44 | O=C(O)CCc1ccc(-c2nc(=O)c3ccccc3s2)nc1 [Example 328, 3-[6-(4-Oxo-4H-1,3-benzothiazin-2-yl)-3-pyridyl]propionic acid] | 232.2 to 232.4 °C
45 | CCOC(=O)c1ccnc(-c2nc(=O)c3ccccc3s2)c1 [Example 27, Ethyl 2-(4-oxo-4H-1,3-benzothiazin-2-yl)isonicotinate] | 235.9 to 236.7 °C

Reference: patent US7767665B2, “1,3-benzothiazinone derivatives and use thereof” (Takeda Pharmaceutical Company Limited, priority 2001, dated 2010)
